Experimental data: article PMC11157767 (Molecular Cancer, 2024)
Several values for one entry are separate records, joined by “and”; a condition that tells them apart may be missing. Identical values can stand only once. Like-named read-outs stand apart in the source and are kept apart here.

How the values were obtained:
in vitro = conditions: mouse, brain homogenate
[1] = Brain pharmacokinetics in CD-1 nude mice (NCA); format: in vivo, mouse
Protocol: (§1) Fig. 2 TFG-MET-driven mouse model and pharmacokinetic profiles of MET inhibitors. a Schematic illustrating the method and utilized vectors to induce CRISPR/Cas9-mediated Trp53 deletion and TFG-MET overexpression following in utero electroporations. b H&E staining and Immunohistochemical analysis of a tumor generated by in utero electroporation, visualized by the HA-tag of TFG-MET. […] Three mice were analyzed per compound and time point. Error bars indicate the standard deviation. Dashed rectangles indicate time windows of radiation in the following preclinical allograft study
(§2) See Methods – Pharmacokinetics section for a description of abbreviations.

TRIM24-MET-i cells = assay: 3-day dose-response assay, TRIM24-MET-i cells; format: cell-based; conditions: Homo sapiens
[2] = Plasma pharmacokinetics in CD-1 nude mice (NCA); format: in vivo, mouse
Protocol: as §1, §2

pMET, pErk, pAkt = assay: Phosphoprotein IHC/western blot in TFG-MET allograft tumors (PD and Survival cohort); format: in vivo, mouse; conditions: PD cohort, after second treatment, vs vehicle
Protocol: Error bars display standard error of the mean. Statistical significance was determined using a One-Way ANOVA followed by Tukey’s multiple comparisons test (*p<0.05, **p<0.01, ***p<0.001, ****p<0.0001)

[3] = test system: murine TFG-MET tumor cells; assay: cells; conditions: Mus musculus
Source text: To calculate unbound EC50 and EC90 values, total values were multiplied with unbound drug fractions in culture media (Table 1).

[4] = In vitro protein binding assay, culture media; format: in vitro ADME; conditions: read-out: unbound drug fraction, Culture Media, AVG
TFG-MET allograft tumors = assay: TFG-MET allograft preclinical trial in CD1 mice, Survival cohort (survival, BLI, body weight); format: in vivo, mouse; conditions: Murine allografts
Protocol: All treatments started 1 week after transplantation. Radio therapy was administered for 6 days, delivering 12 Gy total. Compound treatment was continued for 84 days. […] N = 8 (vehicle arms) or n = 10 (compound-treated arms), respectively. […] First row is depicted in another intensity scale to visualize tumors in all mice. The depicted scale bar indicates the range from 5x10^5-1x10^7 photons/sec/cm^2/sr.
Survival, body weight and tumor burden data from TFG-MET allograft-bearing mice. a,Schematic illustrating the preliminary in vivo study to determine the efficacy of RT alone. b, Survival curve of mice depicted in a. […] Each line represents one mouse. The ends of lines indicate the onset of neurological symptoms and thereby the endpoints.
Bioluminescence signals of in vivo trials.

MET-fusion pHGG = conditions: cited from earlier work
[5] = CD-1 nude, mouse, Brain, NCA estimate
[6] = CD-1 nude, mouse, Plasma, NCA estimate

Compound: C[C@@H](Oc1cc(-c2cnn(C3CCNCC3)c2)cnc1N)c1c(Cl)ccc(F)c1Cl [Crizotinib]
- fraction unbound (in vitro): 0.0106
- Clast ([1]; Brain, NCA estimate): 453 ng/mL
- Tlast ([1]; Brain, NCA estimate): 16 h
- maximal concentration of unbound drug in the brain ([1]; CD1 nude mice, estimated with Fu,b): ~ 11 nM
- concentration reached in brain tissues ([1]; CD1 nude mice, total drug): > 1000 nM
- AUC(0-t) [1, 5]: 6570 ng·h/mL
- Cmax [1, 5]: 453 ng/mL
- Tmax [1, 5]: 4 h
- Kp ([1]; CD-1 nude, mouse, Brain, NCA estimate, read-out: Kp,last): 0.155
- EC50 (TRIM24-MET-i cells; 72 h, read-out: EC50 Total): 18.1 nM
- EC90 (TRIM24-MET-i cells; 72 h, read-out: EC90 Total): 322 nM
- EC50 (TRIM24-MET-i cells; read-out: EC50 Unbound): 11.1 nM
- EC90 (TRIM24-MET-i cells; read-out: EC90 Unbound): 198 nM
- time of reaching Cmax ([2]; CD1 nude mice, post dose, brain and plasma not distinguished): 4 h
- AUC ([2]; CD-1 nude, mouse, plasma, 25 mg/kg, read-out: total plasma AUC): 64700 ng·h/mL
- AUC(0-inf) [2, 6]: 64700 ng·h/mL
- AUC(0-t) [2, 6]: 42400 ng·h/mL
- CL/F [2, 6]: 25.8 mL/min/kg
- Cmax [2, 6]: 5040 ng/mL
- Tmax [2, 6]: 1 h
- half-life [2, 6]: 10.3 h
- k el [2, 6]: 1.86e-05 s⁻¹
- Vd/F ([2]; CD-1 nude, mouse, Plasma, NCA estimate, read-out: Vz/F): 23 L/kg
- Clast ([2]; Plasma, NCA estimate): 1670 ng/mL
- Tlast ([2]; Plasma, NCA estimate): 16 h
- levels of phosphorylated MET, Erk and Akt in initial neoplasms (pMET, pErk, pAkt): less complete reduction
- EC50 ([3]; read-out: EC50 (nM) Total): 124 nM
- EC50 ([3]; read-out: EC50 (nM) Unbound*): 76.2 nM
- EC90 ([3]; read-out: EC90 (nM) Total): 612 nM
- EC90 ([3]; read-out: EC90 (nM) Unbound*): 378 nM
- IC50 ([3]; read-out: in vitro IC50): 124 nM
- fraction unbound [4]: 0.617
- BLI signal, individual mice (TFG-MET allograft tumors; day 7, drug + RT): 3.20E+07 and 3.90E+07 and 3.50E+08 and 1.10E+08 and 1.40E+07 and 8.30E+05 and 5.70E+06 and 1.70E+07 and 6.90E+05 and 4.00E+06
- BLI signal, individual mice (TFG-MET allograft tumors; day 7, drug alone): 8.40E+06 and 1.40E+07 and 3.90E+08 and 2.00E+06 and 1.50E+07 and 3.90E+06 and 6.00E+06 and 4.10E+06 and 1.20E+06 and 8.20E+06
- BLI signal, individual mice (TFG-MET allograft tumors; day 10, drug + RT): 3.00E+07 and 4.60E+07 and 1.60E+08 and 1.80E+08 and 5.10E+07 and 1.20E+06 and 1.50E+07 and 6.00E+05 and 7.00E+06
- BLI signal, individual mice (TFG-MET allograft tumors; day 10, drug alone): 2.30E+07 and 6.50E+07 and 3.70E+08 and 3.10E+06 and 5.60E+07 and 6.20E+06 and 3.30E+07 and 1.30E+07 and 3.50E+06 and 2.70E+06
- BLI signal, individual mice (TFG-MET allograft tumors; day 14, drug + RT): 1.90E+06 and 9.10E+07 and 9.70E+07 and 7.90E+07 and 7.60E+05 and 1.70E+08 and 5.90E+08 and 6.70E+05 and 3.10E+07
- BLI signal, individual mice (TFG-MET allograft tumors; day 14, drug alone): 5.20E+07 and 1.80E+09 and 3.60E+07 and 3.20E+08 and 6.50E+07 and 1.60E+08 and 1.70E+07 and 1.10E+07 and 2.00E+07
- BLI signal, individual mice (TFG-MET allograft tumors; day 21, drug + RT): 1.00E+05 and 5.60E+06 and 1.60E+07
- BLI signal, individual mice (TFG-MET allograft tumors; day 21, drug alone): 3.40E+07 and 2.10E+08 and 2.60E+08 and 2.60E+07 and 1.40E+08 and 8.10E+07
- BLI signal, individual mice (TFG-MET allograft tumors; day 28, drug + RT): 1.20E+08 and 2.10E+07
- BLI signal, individual mice (TFG-MET allograft tumors; day 28, drug alone): 5.90E+07 and 2.20E+08 and 4.40E+08 and 3.00E+08
- BLI signal, individual mice (TFG-MET allograft tumors; day 35, drug + RT): 1.30E+05 and 1.70E+07
- BLI signal, individual mice (TFG-MET allograft tumors; day 35, drug alone): 1.00E+07 and 8.70E+08 and 6.50E+08
- BLI signal, individual mice (TFG-MET allograft tumors; day 42, drug + RT): 1.30E+05
- BLI signal, individual mice (TFG-MET allograft tumors; day 42, drug alone): 1.00E+07 and 1.20E+09
- BLI signal, individual mice (TFG-MET allograft tumors; day 49, drug alone): 1.90E+06
- BLI signal, individual mice (TFG-MET allograft tumors; day 56, drug + RT): 1.30E+05
- BLI signal, individual mice (TFG-MET allograft tumors; day 56, drug alone): 2.20E+06
- BLI signal, individual mice (TFG-MET allograft tumors; day 63, drug alone): 1.90E+07
- BLI signal, individual mice (TFG-MET allograft tumors; day 70, drug + RT): 1.00E+05
- BLI signal, individual mice (TFG-MET allograft tumors; day 70, drug alone): 2.30E+07
- BLI signal, individual mice (TFG-MET allograft tumors; day 84, drug + RT): 1.26E+05
- BLI signal, individual mice (TFG-MET allograft tumors; day 91, drug alone): 1.06E+05
- clinical response of one pHGG patient with MET fusion (MET-fusion pHGG): partial response with rapid tumor relapse
